The text below walks through data of paper PMC3946342, “Evaluating Molecular Mechanism of Hypotensive Peptides Interactions with Renin and Angiotensin Converting Enzyme” (PLoS ONE, 2014).

The test system of experiment [1] is ACE. To be noted: cited from earlier work.
The next experiment concerns the target T1, Rabbit lung ACE (Oryctolagus cuniculus, UniProt P12822).
T1 construct: Rabbit lung ACE (A6778, 98% purity); purchased Sigma-Aldrich A6778; host or cells: rabbit lung (tissue-derived)
T1 sequence (P12822 34-1310): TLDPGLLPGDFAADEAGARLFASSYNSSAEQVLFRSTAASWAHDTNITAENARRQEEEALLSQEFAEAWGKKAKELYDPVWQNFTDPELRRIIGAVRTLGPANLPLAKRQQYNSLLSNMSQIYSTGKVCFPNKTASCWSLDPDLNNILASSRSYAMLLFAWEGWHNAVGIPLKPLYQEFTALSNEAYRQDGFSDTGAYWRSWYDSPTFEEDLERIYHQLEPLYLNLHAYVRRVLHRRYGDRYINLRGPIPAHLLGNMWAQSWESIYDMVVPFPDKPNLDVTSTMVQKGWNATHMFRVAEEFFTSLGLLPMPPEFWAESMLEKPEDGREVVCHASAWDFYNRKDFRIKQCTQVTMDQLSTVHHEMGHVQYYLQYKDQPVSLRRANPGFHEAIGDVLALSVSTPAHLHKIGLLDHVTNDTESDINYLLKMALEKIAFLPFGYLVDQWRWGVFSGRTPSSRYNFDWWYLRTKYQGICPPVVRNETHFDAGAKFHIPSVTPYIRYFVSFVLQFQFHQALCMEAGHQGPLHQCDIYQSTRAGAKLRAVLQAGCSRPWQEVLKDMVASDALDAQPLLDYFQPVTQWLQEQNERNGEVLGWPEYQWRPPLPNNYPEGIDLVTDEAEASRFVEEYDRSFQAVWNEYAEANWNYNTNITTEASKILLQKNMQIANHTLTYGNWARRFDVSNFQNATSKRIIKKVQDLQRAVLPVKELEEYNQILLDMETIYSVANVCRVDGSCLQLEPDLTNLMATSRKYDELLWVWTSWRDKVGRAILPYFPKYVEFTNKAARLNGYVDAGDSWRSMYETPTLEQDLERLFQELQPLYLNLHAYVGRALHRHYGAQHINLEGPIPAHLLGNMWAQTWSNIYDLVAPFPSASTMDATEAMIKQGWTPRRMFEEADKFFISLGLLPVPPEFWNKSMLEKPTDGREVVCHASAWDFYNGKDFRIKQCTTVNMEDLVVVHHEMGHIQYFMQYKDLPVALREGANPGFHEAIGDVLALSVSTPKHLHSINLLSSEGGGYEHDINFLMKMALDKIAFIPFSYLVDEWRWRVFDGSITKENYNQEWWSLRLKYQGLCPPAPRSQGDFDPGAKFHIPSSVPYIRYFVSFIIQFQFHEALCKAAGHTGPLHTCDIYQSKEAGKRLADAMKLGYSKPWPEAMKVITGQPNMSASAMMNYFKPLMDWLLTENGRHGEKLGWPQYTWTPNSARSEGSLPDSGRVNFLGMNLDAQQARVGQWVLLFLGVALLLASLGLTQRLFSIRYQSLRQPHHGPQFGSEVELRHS
Put plainly: Kinetics of ACE inhibition (Lineweaver-Burk, FAPGG substrate). The experiment is classed as biochemical. How it is done: (§1) Kinetics of ACE and renin inhibition was determined using a previously described method. For ACE inhibition, the substrate (FAPGG) concentrations were 0.0625, 0.125, 0.25 and 0.5 mM, while renin substrate concentrations were 1.25, 2.5, 5 and 10 µM. Peptide concentrations used during the assays are shown in Tables 1 and 2 for the kinetics of ACE and renin inhibition, respectively. The modes of ACE and renin inhibition were determined from Lineweaver-Burk plots while inhibition parameters (Vmax and Km) were calculated, respectively, as the Y and X-axis intercepts of the primary plot. Ki was calculated as the X-axis intercept of the line obtained from a secondary plot of Lineweaver-Burk line slopes versus peptide concentrations.

Experiment [2] deals with T2, renin (Homo sapiens, UniProt P00797).
T2 construct: purchased Cayman Chemicals 10006217
T2 sequence (P00797 67-406): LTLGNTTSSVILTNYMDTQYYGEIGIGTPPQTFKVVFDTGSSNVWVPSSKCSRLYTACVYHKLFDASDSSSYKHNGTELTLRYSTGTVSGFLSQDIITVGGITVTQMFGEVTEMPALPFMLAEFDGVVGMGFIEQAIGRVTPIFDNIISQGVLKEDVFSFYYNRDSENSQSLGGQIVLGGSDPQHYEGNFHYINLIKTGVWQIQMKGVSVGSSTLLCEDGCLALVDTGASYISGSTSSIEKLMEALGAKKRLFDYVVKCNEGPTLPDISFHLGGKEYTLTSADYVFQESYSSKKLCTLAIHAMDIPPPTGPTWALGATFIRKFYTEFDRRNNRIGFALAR
Put plainly: Kinetics of renin inhibition (Lineweaver-Burk). To be noted: for Ki / K′m / V′max: renin; for Ki: secondary plot of Lineweaver-Burk slopes, read-out: Ki (enzyme-inhibitor dissociation constant); for Mode of renin inhibition: double reciprocal plot. The experiment is classed as biochemical. How it is done: as §1

Experiment [3] concerns the target T2, renin. Put plainly: Intrinsic fluorescence emission of renin with peptides. The experiment is classed as binding. How it is done: Fluorescence emission spectra were obtained using the method of Li et al.. Briefly, 25 µL of 1 U/mL ACE (prepared in 50 mM Tris–HCl buffer, pH 7.5, containing 300 mM NaCl) or 25 µL of 250 µg/mL renin (prepared in 50 mM Tris–HCl buffer, pH 8.0, containing 100 mM NaCl) was mixed with 50 µL of peptide solution and 25 µL of the appropriate buffer to yield a 100 µL assay solution. Emission spectra were recorded at 25°C using a micro quartz cell (100 µL capacity) on a JASCO FP-6300 spectrofluorimeter (JASCO, Tokyo, Japan). ACE or renin assay solutions were excited at 280 nm and emission recorded from 290 to 450 nm. Emission spectrum of the respective buffer, peptides and enzymes was subtracted from the emission spectrum of each assay solution.

The target in experiment [4] is T3, ACE (Oryctolagus cuniculus, UniProt P12822).
T3 construct: Rabbit lung ACE (A6778, 98% purity); purchased Sigma-Aldrich A6778; host or cells: rabbit lung (tissue-derived)
T3 sequence (P12822 34-1310): T1 sequence (P12822 34-1310)
Put plainly: Far-UV circular dichroism of ACE-peptide complex. Also on record: species or system Rabbit. How it is done:
(§2) Far-UV CD spectra were obtained using a JASCO J-815 spectropolarimeter (JASCO, Tokyo, Japan) under constant nitrogen flush according to the method of Omoni and Aluko [11]. A 0.5 mm pathlength quartz cell was used for the far UV (190–240 nm) measurements and each final spectrum was the average of three consecutive scans with simultaneous subtraction of the respective buffer, peptides and enzymes spectrum. For determining the peptide-enzyme interaction spectra, 150 µL of 1 U/mL ACE (prepared in 50 mM Tris–HCl buffer, pH 7.5, containing 300 mM NaCl) or 150 µL of 250 µg/mL renin (prepared in 50 mM Tris–HCl buffer, pH 8.0, containing 100 mM NaCl) was mixed with 50 µL of a peptide solution. The far-UV CD spectra in the 200–240 nm range were analyzed for secondary structure fractions using the online DICHROWEB procedure.

In experiment [5] the target is T2, renin. Nature of the experiment: Far-UV circular dichroism of renin-peptide complex. To be noted: for Unordered / α-helix / β-sheet / β-turn: renin. How it is done: as §2
Experiment [6] relates to ACE. On the set-up: method as in earlier work. To be noted: previously determined ref 8; read-out: IC50 for ACE inhibition; cited from earlier work.
The subject of experiment [7] is renin. Also on record: method as in earlier work. To be noted: previously determined ref 8; read-out: IC50 for renin inhibition; cited from earlier work.

Where “and” joins values, the source holds several entries; their conditions need not be identical. Equal entries are not always repeated. Residues, ends and D or L forms follow the SMILES beside them.

As to FEDYVPLSCF, the “Mode of ACE inhibition” value in the experiment with ACE [1] is recorded as “mixed-type”.

As for RMLGQTP, the “Mode of ACE inhibition” value in the experiment on ACE [1] is reported as “mixed-type”.

`CC(C)C[C@H](NC(=O)[C@H](C)NC(=O)[C@@H](N)CCCNC(=N)N)C(=O)N1CCC[C@H]1C(=O)O` [RALP, Arg-Ala-Leu-Pro] (H-RALP-OH): the Ki at Rabbit lung ACE (ACE, secondary plot of Lineweaver-Burk slopes, read-out: Ki (enzyme-inhibitor dissociation constant)) was 104 µM; on renin [2], 285 µM.

With `C[C@@H](O)[C@H](N)C(=O)N[C@@H](Cc1ccccc1)C(=O)O` [TF, Thr-Phe] (H-Thr-Phe-OH; N-terminus and C-terminus assumed), the “K′m” value on Rabbit lung ACE (ACE, TF 0.1887 mM) worked out at 1.0088 mM; at Rabbit lung ACE (ACE, TF 0.7510 mM), 0.5546 mM; at renin [2] (TF 0.9387 mM), 4.78 µM; at renin [2] (TF 3.7551 mM), 4.41 µM. Further, the “V′max” value on Rabbit lung ACE (ACE, TF 0.1887 mM) was 0.0185 ΔA/min; at Rabbit lung ACE (ACE, TF 0.7510 mM) it was 0.0097 ΔA/min; at renin [2] (TF 0.9387 mM) it was 25.89 FI/min; on renin [2] (TF 3.7551 mM), 17.20 FI/min. Besides, the “Mode of ACE inhibition” value at Rabbit lung ACE (Lineweaver-Burk plots) is “mixed-type”. Besides, the “Mode of renin inhibition” value at renin [2] is given as “non-competitive”. Also, the “λmax of renin emission” value at renin [3] (0.047 mM peptide, 328.5 nm without peptide) was 326 nm; at renin [3] (0.094 mM peptide, 328.5 nm without peptide), 327 nm. Further, at renin [3] (renin paragraph (printed ACE FI), LY at 0.170 mM, concentration for TF, RALP not given), the “Decrease in FI” value is on record as 47%. The Unordered at ACE [4] (peptide 12.5 µg/mL) is 22.31±2.25^E %; at ACE [4] (peptide 25 µg/mL), 39.9±1.56^B %; at renin [5] (peptide 12.5 µg/mL), 28.91±0.25^G %; at renin [5] (peptide 25 µg/mL), 72.25±0.21^C %. The α-helix on ACE [4] (peptide 12.5 µg/mL) is 16.55±0.49^B %; at ACE [4] (peptide 25 µg/mL) it was 13.43±0.72^C %; at renin [5] (peptide 12.5 µg/mL), 2.91±0.26^C %; at renin [5] (peptide 25 µg/mL) it was 0.95±0.07^D %. The β-sheet on ACE [4] (peptide 12.5 µg/mL) is 41.67±2.17% and 41.67±2.17^A %; at ACE [4] (peptide 25 µg/mL), 29.17±0.86% and 29.17±0.86^B %; on renin [5] (peptide 12.5 µg/mL) it was 46.97±0.31^A %; on renin [5] (peptide 25 µg/mL), 7.91±0.85^D %. For the same compound, the β-turn was 16.97±0.31^C % at ACE [4] (peptide 12.5 µg/mL), 17.33±0.64^C % at ACE [4] (peptide 25 µg/mL), 21.37±0.06^A % at renin [5] (peptide 12.5 µg/mL) and 18.95±0.21^B % on renin [5] (peptide 25 µg/mL). Moreover, the “Factor of increase of unordered fraction in renin” value on renin [5] (0.094 mM peptide) amounted to 2.25. The “Factor of reduction of β-sheet fraction in renin” value on renin [5] (0.094 mM peptide) is recorded as around 6. The IC50 in the experiment with ACE [6] is 810 µM; with renin [7], 3060 µM.

Turning to FNVPLYE, the “Mode of ACE inhibition” value in the experiment with ACE [1] was “mixed-type”.

Turning to `CC(C)C[C@H](N)C(=O)N[C@@H](Cc1ccc(O)cc1)C(=O)O` [LY, Leu-Tyr], on renin [2], the “Mode of renin inhibition” value was “uncompetitive” and the Ki was determined as 2240 µM. For the same compound, on renin [2] (LY 0.8493 mM), the “K′m” value came out at 2.45 µM and the “V′max” value turned out to be 17.74 FI/min. In addition, at renin [2] (LY 1.6986 mM), the “K′m” value turned out to be 3.11 µM and the “V′max” value came out at 17.63 FI/min. On renin [3] (0.170 mM peptide), the “λmax of renin emission” value came out at 326 nm. Moreover, at renin [5] (peptide 12.5 µg/mL), the Unordered is reported as 30.37±0.23^F %, the α-helix is 4.63±0.12^B %, the β-sheet is 44.41±0.61^B % and the β-turn was 19.41±0.17^B %. Besides, at renin [5] (peptide 25 µg/mL), the Unordered is 74.87% and 74.87±0.31^B %; the α-helix is 2.63±0.32^C %; the β-sheet was 4.33±0.32^E %; the β-turn is given as 19.73±1.45^B %. Further, the IC50 in the experiment with renin [7] is 1870 µM.

On to AWLHPGAPKVF, for which the “Mode of ACE inhibition” value with ACE [1] was “competitive”.
